15 compounds from the Kinase Knowledgebase extract (Sharma et al. 2016) can be followed below.

A word on the GI50: it is the concentration giving 50% growth inhibition.

Assay [1] relates to EGFR (human), P00533 [delE746-A750]. The note with it: hcc827.
In assay [2] the test system is EGFR (Human), P00533 [T790M/L858R]. The note with it: h1975.
Sequence of EGFR (Human), P00533 [T790M/L858R] (P00533 whole entry T790M/L858R, looked up): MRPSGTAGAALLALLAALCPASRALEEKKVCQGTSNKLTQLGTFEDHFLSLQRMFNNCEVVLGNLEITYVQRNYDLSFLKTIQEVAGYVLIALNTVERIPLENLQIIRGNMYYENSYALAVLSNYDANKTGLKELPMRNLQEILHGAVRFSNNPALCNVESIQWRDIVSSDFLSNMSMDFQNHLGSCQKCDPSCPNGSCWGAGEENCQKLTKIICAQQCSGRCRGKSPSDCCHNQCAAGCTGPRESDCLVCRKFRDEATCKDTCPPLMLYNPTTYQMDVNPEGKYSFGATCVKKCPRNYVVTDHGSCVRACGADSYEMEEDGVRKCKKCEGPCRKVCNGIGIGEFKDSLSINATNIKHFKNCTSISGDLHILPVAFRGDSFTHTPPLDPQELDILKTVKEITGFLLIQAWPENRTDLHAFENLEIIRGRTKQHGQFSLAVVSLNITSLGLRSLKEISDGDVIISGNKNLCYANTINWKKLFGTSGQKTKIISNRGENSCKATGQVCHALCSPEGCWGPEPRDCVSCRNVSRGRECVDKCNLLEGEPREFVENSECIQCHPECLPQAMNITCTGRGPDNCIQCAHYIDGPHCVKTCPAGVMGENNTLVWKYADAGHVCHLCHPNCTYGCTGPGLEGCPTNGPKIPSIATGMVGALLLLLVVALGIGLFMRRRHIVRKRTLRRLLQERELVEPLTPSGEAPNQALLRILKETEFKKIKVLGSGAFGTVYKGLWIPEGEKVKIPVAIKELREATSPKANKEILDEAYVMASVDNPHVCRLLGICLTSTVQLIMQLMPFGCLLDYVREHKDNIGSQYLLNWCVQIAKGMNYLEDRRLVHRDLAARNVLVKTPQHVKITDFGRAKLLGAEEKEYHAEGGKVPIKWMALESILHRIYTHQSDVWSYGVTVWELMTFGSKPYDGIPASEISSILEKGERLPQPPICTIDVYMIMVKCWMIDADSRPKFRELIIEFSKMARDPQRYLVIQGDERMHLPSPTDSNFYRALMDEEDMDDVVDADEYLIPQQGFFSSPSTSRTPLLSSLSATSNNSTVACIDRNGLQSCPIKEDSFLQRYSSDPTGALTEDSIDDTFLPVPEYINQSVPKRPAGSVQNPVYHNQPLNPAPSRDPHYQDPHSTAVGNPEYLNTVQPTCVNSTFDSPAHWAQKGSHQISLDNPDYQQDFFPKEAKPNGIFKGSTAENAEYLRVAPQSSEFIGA

Sequence of EGFR (human), P00533 [delE746-A750] (P00533 whole entry, looked up, stated change not applied): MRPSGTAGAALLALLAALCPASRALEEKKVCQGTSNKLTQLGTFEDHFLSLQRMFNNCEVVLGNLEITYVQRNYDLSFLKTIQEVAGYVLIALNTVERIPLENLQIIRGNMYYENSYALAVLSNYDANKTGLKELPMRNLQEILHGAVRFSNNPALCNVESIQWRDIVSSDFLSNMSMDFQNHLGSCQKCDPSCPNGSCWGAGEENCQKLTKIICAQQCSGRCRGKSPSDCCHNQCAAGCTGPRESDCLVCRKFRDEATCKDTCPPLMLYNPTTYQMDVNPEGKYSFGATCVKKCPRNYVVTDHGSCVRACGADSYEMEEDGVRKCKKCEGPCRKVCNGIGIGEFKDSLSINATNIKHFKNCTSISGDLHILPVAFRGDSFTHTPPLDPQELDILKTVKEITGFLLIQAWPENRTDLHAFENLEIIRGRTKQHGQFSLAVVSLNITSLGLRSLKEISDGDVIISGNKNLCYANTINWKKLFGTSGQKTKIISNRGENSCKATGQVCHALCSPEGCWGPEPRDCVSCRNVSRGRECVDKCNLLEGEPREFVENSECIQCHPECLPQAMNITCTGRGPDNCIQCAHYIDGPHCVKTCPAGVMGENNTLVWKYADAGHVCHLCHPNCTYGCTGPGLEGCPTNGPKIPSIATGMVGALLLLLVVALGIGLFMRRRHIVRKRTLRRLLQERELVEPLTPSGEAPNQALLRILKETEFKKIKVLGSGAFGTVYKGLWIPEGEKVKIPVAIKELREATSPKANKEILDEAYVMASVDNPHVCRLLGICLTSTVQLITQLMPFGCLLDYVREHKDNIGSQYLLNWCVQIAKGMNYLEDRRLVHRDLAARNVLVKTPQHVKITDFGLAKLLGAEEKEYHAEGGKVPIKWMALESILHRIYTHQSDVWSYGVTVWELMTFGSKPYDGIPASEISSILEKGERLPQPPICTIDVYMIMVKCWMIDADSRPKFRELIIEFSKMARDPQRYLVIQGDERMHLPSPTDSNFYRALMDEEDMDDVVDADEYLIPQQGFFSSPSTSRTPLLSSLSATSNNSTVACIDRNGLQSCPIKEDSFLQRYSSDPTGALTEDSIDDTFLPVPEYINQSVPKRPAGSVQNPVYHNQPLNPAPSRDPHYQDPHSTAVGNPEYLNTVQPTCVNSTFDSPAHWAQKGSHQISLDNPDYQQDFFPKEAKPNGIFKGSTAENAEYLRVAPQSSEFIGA

Take `C=CC(=O)Nc1cccc(Nc2nc(Nc3ccc(OC)c(OC)c3OC)ncc2C(F)(F)F)c1`: the 50% growth inhibitory concentration (GI50) lay within 10 to 100 nM in assay [1] and 100 to 500 nM in assay [2].

As for `C=CC(=O)Nc1cccc(Nc2nc(Nc3ccccc3OC)ncc2Cl)c1`, in assay [1], the GI50 was in the range of 500 to 1000 nM.

In the case of `C=CC(=O)Nc1cccc(Nc2nc(Nc3ccc(OC)cc3OC)ncc2Br)c1`, in assay [1], the GI50 is 100 to 500 nM.

As to `C=CC(=O)Nc1cccc(Oc2nc(Nc3ccc(OC)c(OC)c3OC)ncc2C(F)(F)F)c1`, the GI50 in assay [1] and in assay [2] was 100 to 500 nM in each case.

As for `C=CC(=O)Nc1cccc(Nc2nc(Nc3ccccc3OC)ncc2C(F)(F)F)c1`, the figures for the GI50 in assay [1] and in assay [2] were 10 to 100 nM and 100 to 500 nM, respectively.

`C=CC(=O)Nc1cccc(Nc2nc(Nc3ccc(OC)cc3OC)ncc2Cl)c1` had a GI50 in assay [1] of 500 to 1000 nM.

On to `C=CC(=O)Nc1cccc(Nc2nc(Nc3ccccc3OC)ncc2Br)c1`, for which the GI50 in assay [1] and in assay [2] was 500 to 1000 nM in each case.

For `C=CC(=O)Nc1cccc(Oc2nc(Nc3cccc(OC)c3OC)ncc2Br)c1`, the GI50 in assay [1] and in assay [2] was 500 to 1000 nM in each case.

On to `C=CC(=O)Nc1cccc(Oc2nc(Nc3ccccc3OC)ncc2C(F)(F)F)c1`, for which, in assay [1], the GI50 is 100 to 500 nM.

As to `C=CC(=O)Nc1cccc(Nc2nc(Nc3ccc(OC)c(OC)c3OC)ncc2Br)c1`, the GI50 in assay [1] lay in the range of 100 to 500 nM.

As to `C=CC(=O)Nc1cccc(Oc2nc(Nc3ccccc3OC)ncc2F)c1`, in assay [1], the GI50 lay in the range of 100 to 500 nM.

On to `C=CC(=O)Nc1cccc(Nc2nc(Nc3cccc(OC)c3OC)ncc2C(F)(F)F)c1`, for which the GI50 in assay [1] was 500 to 1000 nM.

In assay [2], `C=CC(=O)Nc1cccc(Oc2nc(Nc3ccc(OC)cc3OC)ncc2Br)c1` yielded a GI50 of 500 to 1000 nM.

Take `C=CC(=O)Nc1cccc(Oc2nc(Nc3ccc(OC)cc3OC)ncc2C(F)(F)F)c1`: the concentration for 50% growth inhibition (GI50) in assay [1] and in assay [2] was 100 to 500 nM in each case.

For the compound `C=CC(=O)Nc1cccc(Oc2nc(Nc3ccc(OC)c(OC)c3OC)ncc2Cl)c1`, the GI50 in assay [1] and in assay [2] was 100 to 500 nM in each case.
